Experimental data published in paper PMC12040169 (PLOS Biology, 2025).

Test: in vitro
Details: human, hela cells, % viability

| SMILES | viability at 28.5 h, 10 µM |
| --- | --- |
| O=c1[nH]c(=O)c2cc(S(=O)(=O)NC3(c4ccccc4)CCCC3)ccc2[nH]1 [CBK286378] | 110% |
| O=c1[nH]c(=O)c2cc(S(=O)(=O)NC3CCN(Cc4ccccc4)C3)ccc2[nH]1 (stereo not drawn) [CBK286380] | 109% |
| CN(C)C(CNS(=O)(=O)c1ccc2[nH]c(=O)[nH]c(=O)c2c1)c1ccccc1Cl (stereo not drawn) [CBK286385] | 86.7% |
| CCCC1c2cccn2CCN1S(=O)(=O)c1ccc2[nH]c(=O)[nH]c(=O)c2c1 (stereo not drawn) [CBK286388] | 101% |
| O=c1[nH]c(=O)c2cc(S(=O)(=O)NCC3(N4CCOCC4)CCCCC3)ccc2[nH]1 [CBK286390] | 105% |
| O=c1[nH]c(=O)c2cc(S(=O)(=O)N3CCCC(CN4CCCC4)C3)ccc2[nH]1 (stereo not drawn) [CBK286392] | 88.8% |
| O=c1[nH]c(=O)c2cc(S(=O)(=O)N3CCCCC3CN3CCCCC3)ccc2[nH]1 (stereo not drawn) [CBK286393] | 83.5% |
| O=c1[nH]c(=O)c2cc(S(=O)(=O)Nc3cccc(-c4ccc(F)cc4)c3)ccc2[nH]1 [CBK286394] | 84.2% |
| O=c1[nH]c(=O)c2cc(S(=O)(=O)NCc3ccccc3CN3CCCC3)ccc2[nH]1 [CBK286395] | 108% |
| COc1cc2c(cc1CNS(=O)(=O)c1ccc3[nH]c(=O)[nH]c(=O)c3c1)CCC2 [CBK286396] | 98.7% |
| O=c1[nH]c(=O)c2cc(S(=O)(=O)Nc3cccc(CCc4ccncc4)c3)ccc2[nH]1 [CBK286397] | 103% |
| COc1ccc2c(c1)C(O)CC1(CCN(CC(O)c3ccc(-c4ccccc4)cc3)CC1)O2 (stereo not drawn) [CBK286398] | 101% |
| Cc1cc2c(cc1C)C(O)CC1(CCN(CC(=O)NC3CCCCC3)CC1)O2 (stereo not drawn) [CBK286399] | 94% |
| C[C@]12CN(Cc3cccc(C#Cc4ccccc4)c3)C[C@H]1C(=O)Nc1ccccc1C(=O)N2 [CBK286403] | 94.9% |
| Cc1cc(C2CCCCCN2S(=O)(=O)c2ccc3[nH]c(=O)[nH]c(=O)c3c2)no1 (stereo not drawn) [CBK286404] | 94.2% |
| Cn1cc(Cl)c(C2CCCCCN2S(=O)(=O)c2ccc3[nH]c(=O)[nH]c(=O)c3c2)n1 (stereo not drawn) [CBK286408] | 89.3% |
| O=C(c1ccc2c(c1)N(Cc1ccc(F)cc1)C(=O)CO2)c1cccs1 [CBK286410] | 92.3% |
| O=C(c1ccc2c(c1)N(Cc1ccccc1Cl)C(=O)CO2)c1cccs1 [CBK286411] | 94.2% |
| COc1cccc(CN2C(=O)COc3ccc(C(=O)c4cccs4)cc32)c1 [CBK286412] | 96.1% |
| c1ccc(C(Nc2ncc(-c3cnccn3)c(-c3ccco3)n2)c2ccccc2)cc1 [CBK286413] | 90% |
| COc1ccc(F)cc1-c1ccccc1CC1(C(=O)NCc2cccs2)CCOCC1 [CBK286416] | 93.7% |

| SMILES | viability at 28.5 h, 10 µM |
| --- | --- |
| Cc1ccc(-c2ccccc2CC2(C(=O)O)CCN(Cc3ccccc3F)CC2)c(C)c1 [CBK286418] | 96.7% |
| COc1cccc(CN2CCC(Cc3ccccc3-c3ccc(C)cc3C)(C(=O)O)CC2)c1 [CBK286420] | 95.5% |
| COc1ccc(CN2CCC(Cc3ccccc3-c3ccc(C)cc3C)(C(=O)O)CC2)cc1 [CBK286421] | 88.5% |
| Cc1ccc(-c2ccccc2CC2(C(=O)Nc3ccc(C(N)=O)cc3)CCOCC2)c(C)c1 [CBK286422] | 95.9% |
| Cc1ccc(-c2ccccc2CC2(C(=O)Nc3cccc(C(N)=O)c3)CCOCC2)c(C)c1 [CBK286423] | 92.7% |
| COc1ccc(F)cc1-c1ccccc1CC1(C(=O)NCCc2ccccc2)CCOCC1 [CBK286424] | 97.5% |
| COc1ccccc1-c1ccccc1CC1(C(=O)NCc2ccc(F)cc2)CCOCC1 [CBK286425] | 90% |
| COc1ccccc1-c1ccccc1CC1(C(=O)NCc2cccc(F)c2)CCOCC1 [CBK286426] | 96.9% |
| COc1ccc(-c2ccccc2CC2(C(=O)NCc3cccs3)CCOCC2)cc1 [CBK286429] | 92.3% |
| Cc1ccc(CO)cc1NC(=O)[C@@H]1CN(Cc2ccccc2)C[C@H]1C(=O)c1ccc(F)cc1 [CBK286431] | 105% |
| CC(=O)N1CCc2sccc2C1c1ccc(NC(=O)c2ccccc2F)cc1 (stereo not drawn) [CBK286433] | 84.2% |
| CC(=O)N1CCc2sccc2C1c1ccccc1NC(=O)c1ccco1 (stereo not drawn) [CBK286436] | 98.1% |
| OC(CN1CCC(O)(Cn2cnc3ccccc32)CC1)c1ccc(-c2ccccc2)cc1 (stereo not drawn) [CBK286437] | 89% |
| CC1Cc2cc(C(O)CN3CCCC3)ccc2N1C(=O)C1CC1 (stereo not drawn) [CBK286440] | 94.9% |
| CC(=O)N1CCc2sccc2C1c1ccc(NCc2ccc(F)cc2)cc1 (stereo not drawn) [CBK286442] | 90.3% |
| COc1ccc(CNc2ccc(C3c4ccsc4CCN3C(C)=O)cc2)cc1 (stereo not drawn) [CBK286444] | 102% |
| COCC(=O)N1CCc2sccc2C1c1ccc(NCc2ccccc2F)cc1 (stereo not drawn) [CBK286446] | 96.6% |
| O=C(NCc1cccs1)c1ccc2c(=O)n3c(nc2c1)CCN(Cc1ccccc1)CC3 [CBK286448] | 100% |
| Cc1nn(-c2ccccc2)c2nc(O)c(CNC(c3ccccc3)c3ccco3)cc12 (stereo not drawn) [CBK286449] | 83.8% |
| CC(=O)N1CCc2sccc2C1c1ccc(NCc2ccc(F)c(F)c2)cc1 (stereo not drawn) [CBK286452] | 101% |
| COCC(=O)N1CCc2sccc2C1c1ccc(NCc2cccc(OC)c2)cc1 (stereo not drawn) [CBK286454] | 92.9% |

| SMILES | viability at 28.5 h, 10 µM |
| --- | --- |
| CC(=O)N1CCc2sccc2C1c1ccc(NCc2ccc(F)cc2F)cc1 (stereo not drawn) [CBK286455] | 93.8% |
| COCC(=O)N1CCc2sccc2C1c1ccc(NCc2ccc(F)cc2F)cc1 (stereo not drawn) [CBK286460] | 100% |
| CCOc1ccccc1CNc1ccc(C2c3ccsc3CCN2C(=O)COC)cc1 (stereo not drawn) [CBK286461] | 88.5% |
| O=C(Cn1nnc2ccccc21)c1ccc2c(c1)CCN2S(=O)(=O)c1ccccc1 [CBK286464] | 101% |
| CC(=O)N1CCc2sccc2C1c1ccc(NC(=O)c2cccc(F)c2)cc1 (stereo not drawn) [CBK286466] | 83.8% |
| COCC(=O)N1CCc2sccc2C1c1ccc(NC(=O)c2ccc(OC)cc2)cc1 (stereo not drawn) [CBK286467] | 103% |
| COc1ccc(-c2ccc(CN(Cc3ccc4c(c3)OCO4)CC(C)O)cc2)cc1 (stereo not drawn) [CBK286470] | 95% |
| COc1ccc(-c2ccccc2)cc1CN(Cc1ccc2c(c1)OCO2)CC(C)O (stereo not drawn) [CBK286471] | 89.7% |
| COc1cc2c(cc1CN(Cc1ccc3c(c1)OCO3)CC(C)O)CCC2 (stereo not drawn) [CBK286473] | 91.6% |
| CC(O)CN(Cc1ccc(-n2cnc3ccccc32)cc1)Cc1ccc2c(c1)OCO2 (stereo not drawn) [CBK286475] | 101% |
| Cc1ccccc1C1(O)CCN(C(=O)C(c2cccs2)c2cccs2)CC1 [CBK286483] | 106% |
| Fc1ccc(CN(Cc2ccsc2)[C@@H]2COC[C@H]2c2ccc(F)cc2)cc1 [CBK286486] | 92.8% |
| COc1ccc(CN(Cc2cccs2)[C@@H]2COC[C@H]2c2ccc(F)cc2)cc1 [CBK286487] | 90.6% |
| COc1ccc(CN(Cc2ccc(NC(C)=O)cc2)[C@@H]2COC[C@H]2c2ccc(F)cc2)cc1 [CBK286488] | 105% |
| CN(C(=O)c1c[nH]nc1C1CCCN(Cc2ccnc3ccccc23)C1)C1CCCCC1 (stereo not drawn) [CBK286491] | 99.3% |
| COc1ccc(CC(=O)N2CCCCC2c2ccc(Cc3cccc(F)c3)nc2)cc1 (stereo not drawn) [CBK286493] | 90.3% |
| Cc1ccc(C)c(C2CCCN2C(=O)c2ccc(=O)n(CC(=O)Nc3ccc(F)cc3)c2)c1 (stereo not drawn) [CBK286495] | 93.4% |
| CC(C)(C(=O)N1CCC(CC(=O)NCCc2ccccc2F)CC1)c1ccc(F)cc1 [CBK286497] | 104% |
| COc1ccc(CC(=O)N2CCCC(c3cccc(Cc4cccc(C)c4)n3)C2)cc1 (stereo not drawn) [CBK286498] | 99.8% |
| CCn1c(CN2CCCC2c2nc(N(C)C)ncc2-c2cccc(F)c2)nc2ccccc21 (stereo not drawn) [CBK286500] | 102% |
| Cc1nn(C)cc1CN1CCCC1c1nc(N(C)C)ncc1-c1cccc(Cl)c1 (stereo not drawn) [CBK286501] | 86% |

| SMILES | viability at 28.5 h, 10 µM |
| --- | --- |
| O=C(c1ccccc1)N1CCCC(c2cccc(Cc3ccc(Cl)cc3)n2)C1 (stereo not drawn) [CBK286502] | 99.5% |
| O=C(CN1CCCC(c2cccc(Cc3ccc(F)cc3)n2)C1)Nc1nccs1 (stereo not drawn) [CBK286503] | 93.1% |
| Cc1nc(CC(=O)N2CCCC(c3cccc(Cc4ccc(Cl)cc4)n3)C2)cs1 (stereo not drawn) [CBK286505] | 94.3% |
| Cc1nn(C)cc1S(=O)(=O)N1CCCC(c2cccc(Cc3ccc(Cl)cc3)n2)C1 (stereo not drawn) [CBK286506] | 88.4% |
| O=C(C1CCCC1)N1CCC(c2cccc(Cc3ccccc3Cl)n2)CC1 [CBK286507] | 87.6% |
| O=C(CN1CCOCC1)N1CCC(c2cccc(Cc3ccc(C(F)(F)F)cc3)n2)CC1 [CBK286508] | 101% |
| CC1CCc2nc(NC(=O)CC3CCN(C(=O)Cc4ccccc4)CC3)sc2C1 (stereo not drawn) [CBK286509] | 86.4% |
| COc1ccc(CCC(=O)N2CCCC(c3nccnc3-c3cccc(C)c3)C2)cc1 (stereo not drawn) [CBK286510] | 99.6% |
| O=C(CCc1ccc(F)cc1)N1CCC(c2cccc(Cc3ccccc3)n2)CC1 [CBK286511] | 114% |
| CCC(C)NC(=O)C1(Cc2cccc(-c3ccc(OC)cc3)c2)CCOCC1 (stereo not drawn) [CBK286513] | 94.9% |
| COc1ccc(-c2cccc(CC3(C(=O)NCc4cccs4)CCOCC3)c2)cc1 [CBK286514] | 88.5% |
| COc1ccccc1-c1ccc(CC2(C(=O)NCCc3ccccc3)CCOCC2)cc1 [CBK286516] | 102% |
| COc1ccccc1-c1ccc(CC2(C(=O)NCc3cccs3)CCOCC2)cc1 [CBK286517] | 93% |
| COc1ccccc1-c1ccc(CC2(C(=O)NCc3ccc(F)cc3)CCOCC2)cc1 [CBK286518] | 100% |
| COc1ccccc1-c1ccc(CC2(C(=O)NCc3cccc(F)c3)CCOCC2)cc1 [CBK286521] | 92.6% |
| Cc1cc(C)cc(-c2ccc(CC3(C(=O)NC(C)CO)CCOCC3)cc2)c1 (stereo not drawn) [CBK286523] | 110% |
| Cc1cc(Cc2ccc(Cl)cc2)cc(C2CCN(C(=O)Cc3csc(C)n3)CC2)n1 [CBK286526] | 88.5% |
| C[C@@H]1CN(Cc2ccco2)[C@H](C)CN1CC(=O)Nc1nc2c(s1)CCCC2 [CBK286530] | 100% |
